As usually defined, the logP is a log measure of how a compound divides between an organic and an aqueous phase. Low readings indicate lower lipophilicity, high ones higher lipophilicity. Turning to `CC(=O)Oc1c(Cl)cccc1Cl`, the logP stood at 2.94. `Oc1c(F)cccc1F` came in with a logP of 1.96. In turn, `COC(=O)c1c(Cl)cccc1[N+](=O)[O-]` displayed a logP of 2.21.

`CCc1cccc(CC)c1OC(C)=O`: the logP was 3.4. Compound `CCc1cccc(OC(C)=O)c1` gave a logP of 2.45.

On to `COC(=O)c1cccc([N+](=O)[O-])c1`, for which the log partition coefficient (logP) stood at 1.89.

Regarding `COC(=O)c1c(F)cccc1F`, the logP came out at 1.96. In turn, `Oc1c(Br)cccc1Br` returned a logP of 3.36. The compound `O=C(O)c1c(Cl)cccc1[N+](=O)[O-]` had a logP of 1.56. As for `COC(=O)c1ccccc1I`, the logP stood at 2.74. `CCOc1cccc(OC(C)=O)c1` displayed a logP of 2.08. Take `COC(=O)c1cccc(C)c1`: the logP was found to be 2.77. With `COC(=O)c1c(F)cccc1Cl`, the logP is 2.42. Next, `COC(=O)c1c(Cl)cccc1Cl`: 2.79; `NC(=O)c1ccccc1[N+](=O)[O-]`: -0.12; `CSc1ccccc1C(N)=O`: 0.71. Take `N#Cc1ccccc1C(N)=O`: the logP was determined as 0. As to `COC(=O)c1ccccc1[N+](=O)[O-]`, the logP turned out to be 1.66. `COC(=O)c1ccc([N+](=O)[O-])cc1`: the logP stood at 1.89.

In turn, `Cc1cccc(C)c1C(=O)O` came in with a logP of 2.21.

The compound `Cc1cccc(Cl)c1O` yielded a logP of 2.8. `Cc1nc(N)sc1C(=O)CCN(C)C`: the logP is 1.47. Consider `COC(=O)c1c(C)cccc1C`, for which the logP worked out at 2.55. With `COC(=O)c1ccc(Br)cc1`, the logP stood at 2.95. The value for `COC(=O)c1ccc(F)cc1` was 2.28; that for `CC(=O)Oc1c(C)cccc1C` was 2.32; that for `O=C(O)c1c(F)cccc1F` was 1.59.

`Cc1cccc(Cl)c1C(=O)O` came in with a logP of 2.31.

The compound `COC(=O)c1ccc(C)cc1` yielded a logP of 2.7. `CCc1cccc(CC)c1O`: the logP was 3.03. Regarding `COC(=O)c1ccccc1F`, the logP amounted to 1.82. In turn, `COc1cccc(OC(C)=O)c1` returned a logP of 1.61. On to `COC(=O)c1cccc(Cl)c1`, for which the logP amounted to 2.85. Compound `COC(=O)c1ccccc1OC` showed a logP of 2.04.

These data come from the OPERA property sets (Mansouri et al. 2018).
